From US20210215714A1, “COMPLEMENT ALTERNATIVE PATHWAY-ASSOCIATED NEPHROPATHY BIOMARKERS” (Achillion Pharmaceuticals, Inc., priority 2018, published 2021)
Entries after “also recorded” stand apart in the source; their conditions may differ.

System: sC5b-9
Test: Phase 2a study: urinary sC5b-9 (MicroVue sC5b-9 Enzyme Immunoassay);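 note: urine from C3 glomerulopathy or IC-MPGN patients, sandwich ELISA capturing sC5b-9 via C9-ring monoclonal with HRP detection read at 450 nm, values raw or normalized to creatinine or albumin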
Details: for Urine sC5b-9 / sC5b-9/ALB / sC5b-9/Cr: 200 mg TID; for sC5b-9/ALB GEOMEAN / sC5b-9/ALB MEAN / sC5b-9/Cr MEAN / Urine sC5b-9 GEOMEAN / Urine sC5b-9 MEAN / sC5b-9/Cr GEOMEAN: patients A-F
Source text: 10 patients with either C3 Glomerulopathy (C3G) or Immune-Complex Membranoproliferative Glomerulonephritis (IC-MPGN) are to be enrolled across two dose groups. […] Inclusion criteria include a clinical diagnosis of C3G (C3 glomerulonephritis [C3GN] or dense deposit disease [DDD], the 2 types of C3G) or idiopathic immune-complex membranoproliferative glomerulonephritis (IC-MPGN) by renal biopsy for at least 3 months prior to dosing, with the pathologic diagnosis verified by review of the renal biopsy by the study central pathologist. Patients must have low C3 levels (<50% of the lower limit of normal) and normal or near-normal C4 levels (>90% of the lower limit of normal).
To measure urinary sC5b-9 production, patient urine samples were tested utilizing the MicroVue sC5b-9 Enzyme Immunoassay for the quantitation of sC5b-9 in urine. […] The samples were tested utilizing the MicroVue sC5b-9 Enzyme Immunoassay for the quantitation of sC5b-9 urine, which is a three-step procedure utilizing a micro-assay plate coated with a mouse monoclonal antibody that binds specifically to the C9 ring of sC5b-9, HRP-conjugated antibodies to antigens of sC5b-9, and a chromogenic substrate. In step 1, standards, controls, and test specimens are added to micro-assay wells pre-coated with an anti-sC5b-9 specific monoclonal antibody. sC5b-9 present in the Standards, Controls, or specimens will bind to the immobilized sC5b-9 monoclonal antibody. After incubation, a wash cycle removes unbound material. […] In step 2, horseradish peroxidase (HRP)-conjugated antibodies to antigens of sC5b-9 are added to each test well. The enzyme conjugated antibodies bind to sC5b-9 that was captured by the monoclonal anti-sC5b-9 bound on the surface of the micro-assay wells. After incubation, a wash cycle removes unbound, excess conjugate. In step 3, a chromogenic enzyme substrate is added to each micro-assay well. The bound HRP-conjugate reacts with the substrate, forming a blue color. After incubation the enzyme reaction is stopped chemically, the color changes to yellow, and the color intensity is measured spectrophotometrically at 450 nm. The color intensity of the reaction mixture is proportional to the concentration of sC5b-9 present in the test specimens, standards, and controls. […] Measurements of urinary biomarkers are typically normalized to urine creatinine or albumin levels to account for variation in biomarker levels due to changes in urinary filtration rate.

CC(=O)c1nn(CC(=O)N2C[C@H](F)C[C@H]2C(=O)Nc2cccc(Br)n2)c2ccc(-c3cnc(C)nc3)cc12 [Compound 1, (2S,4R)-1-(2-(3-acetyl-5-(2-methylpyrimidin-5-yl)-1H-indazol-1-yl)acetyl)-N-(6-bromopyridin-2-yl)-4-fluoropyrrolidine-2-carboxamide]
Urine sC5b-9 (Patient D, Day 21 Taper): 44.0 ng/mL
sC5b-9/ALB (Patient D, Day 21 Taper): 18 ng/mg
sC5b-9/Cr (Patient D, Day 21 Taper): 10.5 µg/mmol
Urine sC5b-9 (Patient D, Follow-Up Day 24): 39.9 ng/mL
sC5b-9/ALB (Patient D, Follow-Up Day 24): 21 ng/mg
sC5b-9/Cr (Patient D, Follow-Up Day 24): 5.9 µg/mmol
Urine sC5b-9 (Patient D, Follow-Up Day 28): 57.8 ng/mL
sC5b-9/ALB (Patient D, Follow-Up Day 28): 21 ng/mg
sC5b-9/Cr (Patient D, Follow-Up Day 28): 12.0 µg/mmol
Urine sC5b-9 (Patient D, Follow-Up Day 49): 40.3 ng/mL
sC5b-9/ALB (Patient D, Follow-Up Day 49): 16 ng/mg
sC5b-9/Cr (Patient D, Follow-Up Day 49): 10.3 µg/mmol
Urine sC5b-9 (Patient D, Screen): 148.7 ng/mL
sC5b-9/ALB (Patient D, Screen): 34 ng/mg
sC5b-9/Cr (Patient D, Screen): 19.6 µg/mmol
sC5b-9/ALB (Patient E, Day 1/0 Hour): 127 ng/mg
sC5b-9/Cr (Patient E, Day 1/0 Hour): 54.0 µg/mmol
Urine sC5b-9 (Patient E, Day 1 predose): 959 ng/mL
Urine sC5b-9 (Patient E, Day 4): 538 ng/mL
sC5b-9/ALB (Patient E, Day 4): 61 ng/mg
Urine sC5b-9 (Patient E, Day 7): 484 ng/mL
sC5b-9/ALB (Patient E, Day 7/0 Hour): 59 ng/mg
sC5b-9/Cr (Patient E, Day 7/0 Hour): 31.5 µg/mmol
Urine sC5b-9 (Patient E, Day 10): 212 ng/mL
sC5b-9/ALB (Patient E, Day 10): 26 ng/mg
sC5b-9/Cr (Patient E, Day 10): 16.1 µg/mmol
Urine sC5b-9 (Patient E, Day 14): 112 ng/mL
sC5b-9/ALB (Patient E, Day 14): 19 ng/mg
sC5b-9/Cr (Patient E, Day 14): 5.0 µg/mmol
Urine sC5b-9 (Patient E, Day 15 Taper): 70 ng/mL
sC5b-9/ALB (Patient E, Day 15 Taper): 23 ng/mg
sC5b-9/Cr (Patient E, Day 15 Taper): 7.5 µg/mmol
Urine sC5b-9 (Patient E, Day 16 Taper): 42 ng/mL
sC5b-9/ALB (Patient E, Day 16 Taper): 15 ng/mg
sC5b-9/Cr (Patient E, Day 16 Taper): 4.2 µg/mmol
Urine sC5b-9 (Patient E, Day 17 Taper): 74 ng/mL
sC5b-9/ALB (Patient E, Day 17 Taper): 20 ng/mg
sC5b-9/Cr (Patient E, Day 17 Taper): 9.4 µg/mmol
Urine sC5b-9 (Patient E, Day 21 Taper): 97 ng/mL
sC5b-9/ALB (Patient E, Day 21 Taper): 50 ng/mg
sC5b-9/Cr (Patient E, Day 21 Taper): 12.7 µg/mmol
Urine sC5b-9 (Patient E, Follow-Up Day 24): 188 ng/mL
sC5b-9/ALB (Patient E, Follow-Up Day 24): 50 ng/mg
sC5b-9/Cr (Patient E, Follow-Up Day 24): 15.1 µg/mmol
Urine sC5b-9 (Patient E, Follow-Up Day 28): 141 ng/mL
sC5b-9/ALB (Patient E, Follow-Up Day 28): 28 ng/mg
sC5b-9/Cr (Patient E, Follow-Up Day 28): 8.5 µg/mmol
Urine sC5b-9 (Patient E, Follow-Up Day 49): 217 ng/mL
sC5b-9/ALB (Patient E, Follow-Up Day 49): 42 ng/mg
sC5b-9/ALB (Patient F, Day 1/0 Hour): 120 ng/mg
sC5b-9/Cr (Patient F, Day 1/0 Hour): 35.2 µg/mmol
Urine sC5b-9 (Patient F, Day 1 predose): 348 ng/mL
Urine sC5b-9 (Patient F, Day 4): 43 ng/mL
sC5b-9/ALB (Patient F, Day 4): 58 ng/mg
sC5b-9/Cr (Patient F, Day 4): 8.8 µg/mmol
Urine sC5b-9 (Patient F, Day 7): 54 ng/mL
sC5b-9/ALB (Patient F, Day 7/0 Hour): 147 ng/mg
sC5b-9/Cr (Patient F, Day 7/0 Hour): 13.9 µg/mmol
Urine sC5b-9 (Patient F, Day 10): 34 ng/mL
Urine sC5b-9 (Patient F, Day 14): 62 ng/mL
sC5b-9/ALB (Patient F, Day 14): 37 ng/mg
sC5b-9/Cr (Patient F, Day 14): 6.7 µg/mmol
Urine sC5b-9 (Patient F, Day 15 Taper): 35 ng/mL
sC5b-9/ALB (Patient F, Day 15 Taper): 8 ng/mg
sC5b-9/Cr (Patient F, Day 15 Taper): 5.8 µg/mmol
Urine sC5b-9 (Patient F, Day 16 Taper): 25 ng/mL
sC5b-9/ALB (Patient F, Day 16 Taper): 30 ng/mg
sC5b-9/Cr (Patient F, Day 16 Taper): 7.0 µg/mmol
Urine sC5b-9 (Patient F, Day 17 Taper): 55 ng/mL
sC5b-9/ALB (Patient F, Day 17 Taper): 12 ng/mg
sC5b-9/Cr (Patient F, Day 17 Taper): 5.9 µg/mmol
Urine sC5b-9 (Patient F, Day 21 Taper): 104 ng/mL
sC5b-9/ALB (Patient F, Day 21 Taper): 24 ng/mg
sC5b-9/Cr (Patient F, Day 21 Taper): 8.2 µg/mmol
Urine sC5b-9 (Patient F, Follow-Up Day 24): 51 ng/mL
sC5b-9/ALB (Patient F, Follow-Up Day 24): 34 ng/mg
sC5b-9/Cr (Patient F, Follow-Up Day 24): 9.5 µg/mmol
Urine sC5b-9 (Patient F, Follow-Up Day 28): 65 ng/mL
sC5b-9/ALB (Patient F, Follow-Up Day 28): 57 ng/mg
sC5b-9/Cr (Patient F, Follow-Up Day 28): 14.4 µg/mmol
Urine sC5b-9 (Patient F, Follow-Up Day 49): 180 ng/mL
sC5b-9/ALB (Patient F, Follow-Up Day 49): 59 ng/mg
sC5b-9/Cr (Patient F, Follow-Up Day 49): 33.2 µg/mmol
sC5b-9/ALB GEOMEAN (Day 1/0 Hour): 125.0 ng/mg
sC5b-9/ALB MEAN (Day 1/0 Hour): 335.0 ng/mg
sC5b-9/Cr MEAN (Day 1/0 Hour): 163.6 µg/mmol
Urine sC5b-9 GEOMEAN (Day 1 predose): 210 ng/mL
Urine sC5b-9 MEAN (Day 1 predose): 1120 ng/mL
Urine sC5b-9 GEOMEAN (Day 4): 94 ng/mL
Urine sC5b-9 MEAN (Day 4): 472 ng/mL
sC5b-9/ALB GEOMEAN (Day 4): 80.6 ng/mg
sC5b-9/ALB MEAN (Day 4): 165.3 ng/mg
sC5b-9/Cr GEOMEAN (Day 4): 14.0 µg/mmol
sC5b-9/Cr MEAN (Day 4): 37.0 µg/mmol
Urine sC5b-9 GEOMEAN (Day 7): 91 ng/mL
Urine sC5b-9 MEAN (Day 7): 483 ng/mL
sC5b-9/ALB GEOMEAN (Day 7/0 Hour): 102.8 ng/mg
sC5b-9/ALB MEAN (Day 7/0 Hour): 171.5 ng/mg
sC5b-9/Cr GEOMEAN (Day 7/0 Hour): 17.1 µg/mmol
sC5b-9/Cr MEAN (Day 7/0 Hour): 38.0 µg/mmol
Urine sC5b-9 GEOMEAN (Day 10): 56 ng/mL
Urine sC5b-9 MEAN (Day 10): 231 ng/mL
Urine sC5b-9 GEOMEAN (Day 15 Taper): 66 ng/mL
Urine sC5b-9 MEAN (Day 15 Taper): 588 ng/mL
sC5b-9/ALB GEOMEAN (Day 15 Taper): 48.2 ng/mg
sC5b-9/ALB MEAN (Day 15 Taper): 192.6 ng/mg
sC5b-9/Cr GEOMEAN (Day 15 Taper): 11.9 µg/mmol
sC5b-9/Cr MEAN (Day 15 Taper): 55.8 µg/mmol
Urine sC5b-9 GEOMEAN (Day 17 Taper): 71 ng/mL
Urine sC5b-9 MEAN (Day 17 Taper): 488 ng/mL
sC5b-9/ALB GEOMEAN (Day 17 Taper): 51.5 ng/mg
sC5b-9/ALB MEAN (Day 17 Taper): 191.3 ng/mg
sC5b-9/Cr GEOMEAN (Day 17 Taper): 11.6 µg/mmol
sC5b-9/Cr MEAN (Day 17 Taper): 45.3 µg/mmol
Urine sC5b-9 GEOMEAN (Day 21 Taper): 99 ng/mL
Urine sC5b-9 MEAN (Day 21 Taper): 468 ng/mL
sC5b-9/ALB GEOMEAN (Day 21 Taper): 76.3 ng/mg
sC5b-9/ALB MEAN (Day 21 Taper): 190.1 ng/mg
sC5b-9/Cr GEOMEAN (Day 21 Taper): 15.2 µg/mmol
sC5b-9/Cr MEAN (Day 21 Taper): 58.3 µg/mmol
Urine sC5b-9 GEOMEAN (Follow-Up Day 24): 108 ng/mL
Urine sC5b-9 MEAN (Follow-Up Day 24): 724 ng/mL
sC5b-9/ALB GEOMEAN (Follow-Up Day 24): 92.3 ng/mg
sC5b-9/ALB MEAN (Follow-Up Day 24): 289.8 ng/mg
sC5b-9/Cr GEOMEAN (Follow-Up Day 24): 17.8 µg/mmol
sC5b-9/Cr MEAN (Follow-Up Day 24): 115.8 µg/mmol
Urine sC5b-9 GEOMEAN (Follow-Up Day 28): 113 ng/mL
Urine sC5b-9 MEAN (Follow-Up Day 28): 457 ng/mL
sC5b-9/ALB GEOMEAN (Follow-Up Day 28): 80.5 ng/mg
sC5b-9/ALB MEAN (Follow-Up Day 28): 200.5 ng/mg
sC5b-9/Cr MEAN (Follow-Up Day 28): 64.2 µg/mmol
Urine sC5b-9 GEOMEAN (Follow-Up Day 49): 162 ng/mL
Urine sC5b-9 MEAN (Follow-Up Day 49): 2440 ng/mL
sC5b-9/ALB GEOMEAN (Follow-Up Day 49): 123.3 ng/mg
sC5b-9/ALB MEAN (Follow-Up Day 49): 1111.7 ng/mg
sC5b-9/Cr GEOMEAN (Follow-Up Day 49): 23.5 µg/mmol
sC5b-9/Cr MEAN (Follow-Up Day 49): 159.5 µg/mmol
Urinary sC5b-9 levels (two-week treatment): reduced significantly; also recorded: reduced in all patients
Urinary sC5b-9 levels normalized to urinary creatinine or albumin (two-week treatment): reduced significantly
